# Results as given in patent US20260364215A1, “Radiopharmaceutical Compositions Targeting Ephrin Type-A Receptor 2 and Uses Thereof” (PeptiDream Inc., priority 2022, published 2026).
# pKd: −log10 of the molar value. Numbered stars: 1 amine (or outer) side, 2 acyl side, 3 side chain; on linkers, the order of the positions; unused ones are H or OH. Bridge positions count the residues as written; N and C are the ends. Square brackets hold non-standard residues; d marks the D form. Side chains are listed from the residue outwards. Peptide text beside a SMILES is read from it. * marks the point of attachment. DOTA(Lu) = O=C1CN2CCN3CCN(CC(=O)*)CCN(CC2)CC(=O)[O][Lu]([O]1)[O]C(=O)C3; NH(1-deoxy-D-glucityl) = OC[C@@H](O)[C@@H](O)[C@H](O)[C@@H](O)CN*; DOTA = O=C(O)CN1CCN(CC(=O)O)CCN(CC(=O)*)CCN(CC(=O)O)CC1; Trp(1-Me,7-Cl) = Cn1cc(C[C@H](N)C(=O)O)c2cccc(Cl)c21; dPhe(3-CONH2) = NC(=O)c1cccc(C[C@@H](N)C(=O)O)c1; NMePhe(3-CN) = CN[C@@H](Cc1cccc(C#N)c1)C(=O)O; Piperazinyl(4-CH2COOH) = O=C(O)CN1CCN(*)CC1; Trp(1-Me) = Cn1cc(C[C@H](N)C(=O)O)c2ccccc21; PEG8 = NCCOCCOCCOCCOCCOCCOCCOCCOCCC(=O)O; NMe3Pal = CN[C@@H](Cc1cccnc1)C(=O)O; NMeF = CN[C@@H](Cc1ccccc1)C(=O)O; hCit = NC(=O)NCCCC[C@H](N)C(=O)O; Gly(cBu) = N[C@H](C(=O)O)C1CCC1; NMeE = CN[C@@H](CCC(=O)O)C(=O)O; Aad = N[C@@H](CCCC(=O)O)C(=O)O; NMeN = CN[C@@H](CC(N)=O)C(=O)O; PEG2 = NCCOCCOCCC(=O)O; CO = O=C([*:1])[*:2]; βAla = NCCC(=O)O
# Biological target: T1, Recombinant Human EphA2 Fc Protein (Homo sapiens, UniProt P29317)
# T1 construct: purchased Elabscience
# T1 sequence (P29317 24-534 limits assumed): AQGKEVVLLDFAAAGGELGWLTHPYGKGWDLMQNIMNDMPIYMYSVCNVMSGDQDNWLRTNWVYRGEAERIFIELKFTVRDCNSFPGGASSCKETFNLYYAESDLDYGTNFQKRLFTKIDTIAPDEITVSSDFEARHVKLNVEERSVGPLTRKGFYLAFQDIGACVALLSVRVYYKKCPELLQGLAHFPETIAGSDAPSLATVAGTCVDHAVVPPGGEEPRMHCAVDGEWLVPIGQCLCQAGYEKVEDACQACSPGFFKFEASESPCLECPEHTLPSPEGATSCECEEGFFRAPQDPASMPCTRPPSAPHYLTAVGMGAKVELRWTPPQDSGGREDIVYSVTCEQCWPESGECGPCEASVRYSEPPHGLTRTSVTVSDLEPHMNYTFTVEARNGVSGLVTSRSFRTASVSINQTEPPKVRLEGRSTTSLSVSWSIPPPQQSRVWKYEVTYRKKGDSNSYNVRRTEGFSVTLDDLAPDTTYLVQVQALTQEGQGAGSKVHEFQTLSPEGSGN
# Assay: Interaction analysis (kinetics, KD) of peptides and conjugates against EphA2 by SPR, Biacore T200, single-cycle kinetics (Examples B15 and B22)
# Type: binding
# Details: not given
# Description: Example B15. Interaction Analysis by SPR was Performed Using Biacore (Cytiva)
# SPR assay was performed using Biacore T200 (Cytiva).
# The HBS-P+ buffer (10 mM HEPES (pH7.4), 150 mM NaCl, 0.05% (v/v) Surfactant P20) containing 1% DMSO was used as running buffer. Recombinant Human EphA2 Fc Protein (Fc tag, Elabscience) was captured by Human Antibody Capture kit (Cytiva). Peptide samples in DMSO were diluted with running buffer, and prepared five serial dilutions. Using these serial dilutions, kinetics of peptides against EphA2 was measured at a flow rate of […] at 25 °C. The method adopted for sample measurement was a single-cycle kinetics method. The analysis was conducted using the evaluation software 3.0 provided with Biacore T200. Kinetics fitting was done on the difference data obtained by subtracting the baseline data from sample measurement data. KD values were calculated based on the association rate constant (ka) and dissociation rate constant (kd).
# Example B22: Interaction Analysis of Conjugates by SPR was Performed Using Biacore (Cytiva)
# SPR assay was performed using Biacore T200 (Cytiva) according to Example B15.
row,SMILES,pKd
1,CC(C)C[C@@H]1NC(=O)[C@H](CC(N)=O)NC(=O)[C@H](Cc2cccnc2)N(C)C(=O)[C@@H](C)NC(=O)CSC[C@@H](C(=O)N[C@H](CCCCNC(=O)CN(C)C(=O)CN(C)C(=O)CN(C)C(=O)CN(C)C(=O)CN(C)C(=O)CN(C)C(=O)CN(C)C(=O)CN(C)C(=O)CN(C)C(=O)CN(C)C(=O)CCNC(=O)CN2CCN3CCN4CCN(CC2)CC(=O)[O][Lu]([O]C(=O)C3)[O]C(=O)C4)C(N)=O)NC(=O)[C@H](CCCC(N)=O)NC(=O)[C@H]([C@@H](C)O)NC(=O)[C@H](Cc2cn(C)c3ccccc23)NC(=O)[C@H](CCCCNC(=O)N2CCN(CC(=O)O)CC2)NC(=O)[C@H](Cc2cn(C)c3ccccc23)NC(=O)C(CCC(=O)O)N(C)C(=O)[C@H](CCCC(N)=O)NC1=O (stereo partly shown) [PDC_EphA2-00007196-C310],> 9.00
2,C[C@@H](O)[C@@H]1NC(=O)[C@H](Cc2cn(C)c3ccccc23)NC(=O)[C@H](CCC(=O)NC[C@H](O)[C@@H](O)[C@H](O)[C@H](O)CO)NC(=O)[C@H](Cc2cn(C)c3ccccc23)NC(=O)[C@H](CC(N)=O)N(C)C(=O)[C@H](CCCC(N)=O)NC(=O)[C@H](C2CCC2)NC(=O)[C@H](CC(N)=O)NC(=O)[C@H](Cc2cccnc2)N(C)C(=O)[C@@H](Cc2cccc(C(N)=O)c2)NC(=O)CSC[C@@H](C(=O)N[C@H](CCCCNC(=O)CN2CCN3CCN4CCN(CC2)CC(=O)[O][Lu]([O]C(=O)C3)[O]C(=O)C4)C(N)=O)NC(=O)[C@H](CCCC(N)=O)NC1=O [PDC_EphA2-00022595-C302] ({CH2CO}-[dPhe(3-CONH2)][NMe3Pal]N[Gly(cBu)][Aad](NH2)[NMeN][Trp(1-Me)]E(NH(1-deoxy-D-glucityl))[Trp(1-Me)]T[Aad](NH2)C[dK](DOTA(Lu))-NH2; thioether N-12),> 9.00
3,"C[C@@H](O)[C@@H]1NC(=O)[C@H](Cc2cn(C)c3ccccc23)NC(=O)[C@H](CCC(=O)NC[C@H](O)[C@@H](O)[C@H](O)[C@H](O)CO)NC(=O)[C@H](Cc2cn(C)c3c(Cl)cccc23)NC(=O)[C@H](CC(N)=O)N(C)C(=O)[C@H](CCCC(N)=O)NC(=O)[C@H](C2CCC2)NC(=O)[C@H](CC(N)=O)NC(=O)[C@H](Cc2cccnc2)N(C)C(=O)[C@@H](Cc2cccc(C(N)=O)c2)NC(=O)CSC[C@@H](C(=O)N[C@H](CCCCNC(=O)CN2CCN3CCN4CCN(CC2)CC(=O)[O][Lu]([O]C(=O)C3)[O]C(=O)C4)C(N)=O)NC(=O)[C@H](CCCC(N)=O)NC1=O [PDC_EphA2-00022593-C302] ({CH2CO}-[dPhe(3-CONH2)][NMe3Pal]N[Gly(cBu)][Aad](NH2)[NMeN][Trp(1-Me,7-Cl)]E(NH(1-deoxy-D-glucityl))[Trp(1-Me)]T[Aad](NH2)C[dK](DOTA(Lu))-NH2; thioether N-12)",> 9.00
4,"CC(C)C[C@@H]1NC(=O)[C@H](CC(N)=O)NC(=O)[C@H](Cc2cccnc2)N(C)C(=O)[C@@H](Cc2cccc(C(N)=O)c2)NC(=O)CSC[C@@H](C(=O)N[C@@H](CCCCNC(=O)CN2CCN3CCN4CCN(CC2)CC(=O)[O][Lu]([O]C(=O)C3)[O]C(=O)C4)C(N)=O)NC(=O)[C@H](Cc2cn(C)c3ccccc23)NC(=O)[C@H](CCCCNC(N)=O)NC(=O)[C@H](Cc2cn(C)c3c(Cl)cccc23)NC(=O)[C@H](Cc2ccccc2)N(C)C(=O)[C@H](CO)NC1=O [PDC_EphA2-00026600-C301] ({CH2CO}-[dPhe(3-CONH2)][NMe3Pal]NLS[NMeF][Trp(1-Me,7-Cl)][hCit][Trp(1-Me)]CK(DOTA(Lu))-NH2; thioether N-10)",> 9.00

# Same assay, conditions: conjugates, Biacore T200 according to Example B15, Table B16; read-out: SPR Kd
row,SMILES,pKd
1,"C[C@@H](O)[C@@H]1NC(=O)[C@H](Cc2cn(C)c3ccccc23)NC(=O)[C@H](CCCCNC(=O)N2CCN(CC(=O)O)CC2)NC(=O)[C@H](Cc2cn(C)c3c(Cl)cccc23)NC(=O)[C@H](CCC(=O)O)N(C)C(=O)[C@H](CCCCNC(=O)CN2CCN(CC(=O)O)CCN(CC(=O)O)CCN(CC(=O)O)CC2)NC(=O)[C@H](C2CCC2)NC(=O)[C@H](CC(N)=O)NC(=O)[C@H](Cc2cccnc2)N(C)C(=O)[C@@H](Cc2cccc(C(N)=O)c2)NC(=O)CSC[C@@H](C(=O)N[C@H](CCC(=O)O)C(=O)O)NC(=O)[C@H](CCCC(N)=O)NC1=O.[Lu+3] [PDC_EphA2-00027104] ({CH2CO}-[dPhe(3-CONH2)][NMe3Pal]N[Gly(cBu)]K(DOTA)[NMeE][Trp(1-Me,7-Cl)]K([CO-Piperazinyl(4-CH2COOH)])[Trp(1-Me)]T[Aad](NH2)C[dE]-OH; thioether N-12)",> 9.00
2,"C[C@H]1NC(=O)CSC[C@@H](C(=O)N[C@H](CCC(=O)O)C(N)=O)NC(=O)[C@H](CCCC(N)=O)NC(=O)[C@H]([C@@H](C)O)NC(=O)[C@H](Cc2cn(C)c3ccccc23)NC(=O)[C@H](CCCCNC(=O)N2CCN(CC(=O)O)CC2)NC(=O)[C@H](Cc2cn(C)c3c(Cl)cccc23)NC(=O)[C@H](CCC(=O)O)N(C)C(=O)[C@H](CCCCNC(=O)CN2CCN(CC(=O)O)CCN(CC(=O)O)CCN(CC(=O)O)CC2)NC(=O)[C@H](C2CCC2)NC(=O)[C@H](CC(N)=O)NC(=O)[C@H](Cc2cccnc2)N(C)C1=O.[Lu+3] [PDC_EphA2-00027105] ({CH2CO}-[dA][NMe3Pal]N[Gly(cBu)]K(DOTA)[NMeE][Trp(1-Me,7-Cl)]K([CO-Piperazinyl(4-CH2COOH)])[Trp(1-Me)]T[Aad](NH2)C[dE]-NH2; thioether N-12)",> 9.00
3,"CC(C)C[C@@H]1NC(=O)[C@H](CC(N)=O)NC(=O)[C@H](Cc2cccnc2)N(C)C(=O)[C@@H](Cc2cccc(C(N)=O)c2)NC(=O)CSC[C@@H](C(=O)N[C@H](CCCCNC(=O)CN2CCN(CC(=O)O)CCN(CC(=O)O)CCN(CC(=O)O)CC2)C(N)=O)NC(=O)[C@H](CC(N)=O)NC(=O)[C@H]([C@@H](C)O)NC(=O)[C@H](Cc2cn(C)c3ccccc23)NC(=O)[C@H](CCC(=O)NC[C@H](O)[C@@H](O)[C@H](O)[C@H](O)CO)NC(=O)[C@H](Cc2cn(C)c3c(Cl)cccc23)NC(=O)[C@H](CC(N)=O)N(C)C(=O)[C@H](CC(N)=O)NC1=O.[Lu+3] [PDC_EphA2-00026425-C302] ({CH2CO}-[dPhe(3-CONH2)][NMe3Pal]NLN[NMeN][Trp(1-Me,7-Cl)]E(NH(1-deoxy-D-glucityl))[Trp(1-Me)]TNC[dK](DOTA)-NH2; thioether N-12)",> 9.00
4,CC(C)C[C@@H]1NC(=O)[C@H](CC(N)=O)NC(=O)[C@H](Cc2cccnc2)N(C)C(=O)[C@@H](C)NC(=O)CSC[C@@H](C(=O)NCCC(=O)N[C@H](CCCCNC(=O)CCOCCOCCNC(=O)CCOCCOCCOCCOCCOCCOCCOCCOCCNC(=O)CN2CCN(CC(=O)O)CCN(CC(=O)O)CCN(CC(=O)O)CC2)C(N)=O)NC(=O)[C@H](CCCC(N)=O)NC(=O)[C@H]([C@@H](C)O)NC(=O)[C@H](Cc2cn(C)c3ccccc23)NC(=O)[C@H](CCCCNC(=O)N2CCN(CC(=O)O)CC2)NC(=O)[C@H](Cc2cn(C)c3ccccc23)NC(=O)[C@H](Cc2ccccc2)N(C)C(=O)[C@H](CCCC(N)=O)NC1=O.[Lu+3] [PDC_EphA2-00008093-C304] ({CH2CO}-[dA][NMe3Pal]NL[Aad](NH2)[NMeF][Trp(1-Me)]K([CO-Piperazinyl(4-CH2COOH)])[Trp(1-Me)]T[Aad](NH2)C[βAla][dK]([PEG2-PEG8-DOTA])-NH2; thioether N-12),> 9.00
5,"C[C@@H](O)[C@@H]1NC(=O)[C@H](Cc2cn(C)c3ccccc23)NC(=O)[C@H](CCC(=O)NC[C@H](O)[C@@H](O)[C@H](O)[C@H](O)CO)NC(=O)[C@H](Cc2cn(C)c3c(Cl)cccc23)NC(=O)[C@H](Cc2cccnc2)N(C)C(=O)[C@H](CCCC(N)=O)NC(=O)[C@H](C2CCC2)NC(=O)[C@H](CC(N)=O)NC(=O)[C@H](Cc2cccc(C#N)c2)N(C)C(=O)[C@@H](Cc2cccc(C(N)=O)c2)NC(=O)CSC[C@@H](C(=O)N[C@H](CCCCNC(=O)CN2CCN(CC(=O)O)CCN(CC(=O)O)CCN(CC(=O)O)CC2)C(N)=O)NC(=O)[C@H](CCCC(N)=O)NC1=O.[Lu+3] [PDC_EphA2-00022614-C302] ({CH2CO}-[dPhe(3-CONH2)][NMePhe(3-CN)]N[Gly(cBu)][Aad](NH2)[NMe3Pal][Trp(1-Me,7-Cl)]E(NH(1-deoxy-D-glucityl))[Trp(1-Me)]T[Aad](NH2)C[dK](DOTA)-NH2; thioether N-12)",> 9.00
6,CC(C)C[C@@H]1NC(=O)[C@H](CC(N)=O)NC(=O)[C@H](Cc2cccnc2)N(C)C(=O)[C@@H](C)NC(=O)CSC[C@@H](C(=O)NCCC(=O)N[C@H](CCCCNC(=O)CCOCCOCCNC(=O)CCOCCOCCOCCOCCOCCOCCOCCOCCNC(=O)CN2CCN(CC(=O)O)CCN(CC(=O)O)CCN(CC(=O)O)CC2)C(N)=O)NC(=O)[C@H](CCCC(N)=O)NC(=O)[C@H]([C@@H](C)O)NC(=O)[C@H](Cc2cn(C)c3ccccc23)NC(=O)[C@H](CCCCNC(=O)N2CCN(CC(=O)O)CC2)NC(=O)[C@H](Cc2cn(C)c3ccccc23)NC(=O)[C@H](CCC(=O)O)N(C)C(=O)[C@H](CCCC(=O)O)NC1=O.[Lu+3] [PDC_EphA2-00008094-C304] ({CH2CO}-[dA][NMe3Pal]NL[Aad][NMeE][Trp(1-Me)]K([CO-Piperazinyl(4-CH2COOH)])[Trp(1-Me)]T[Aad](NH2)C[βAla][dK]([PEG2-PEG8-DOTA])-NH2; thioether N-12),> 9.00
